Experimental data reported in PMC7413254 (Nature Communications, 2020).

Key:
[1] = tested on: non-expressing oocytes; test: cells; type: cell-based, Xenopus laevis
Summary of the method: (§1)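 ND96, pH 5.5, 1.5 h, 27.5 °C; uptake direction acidic outside → oocyte cytosol, mimicking efflux from digestive vacuole. Ice-cold wash stop, 10% SDS lysis, scintillation counting. Ten oocytes/treatment, ≥4 independent experiments.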

[2] = target: PfCRT^Ecu1110 (Plasmodium falciparum, UniProt Q9N623, A220S/I356L/K76T/N326D); test: cell-based; type: cell-based; settings: PfCRTEcu1110; mean ± SEM, n = 5; SEM
Chain of PfCRT^Ecu1110 (Q9N623 whole entry A220S/I356L/K76T/N326D): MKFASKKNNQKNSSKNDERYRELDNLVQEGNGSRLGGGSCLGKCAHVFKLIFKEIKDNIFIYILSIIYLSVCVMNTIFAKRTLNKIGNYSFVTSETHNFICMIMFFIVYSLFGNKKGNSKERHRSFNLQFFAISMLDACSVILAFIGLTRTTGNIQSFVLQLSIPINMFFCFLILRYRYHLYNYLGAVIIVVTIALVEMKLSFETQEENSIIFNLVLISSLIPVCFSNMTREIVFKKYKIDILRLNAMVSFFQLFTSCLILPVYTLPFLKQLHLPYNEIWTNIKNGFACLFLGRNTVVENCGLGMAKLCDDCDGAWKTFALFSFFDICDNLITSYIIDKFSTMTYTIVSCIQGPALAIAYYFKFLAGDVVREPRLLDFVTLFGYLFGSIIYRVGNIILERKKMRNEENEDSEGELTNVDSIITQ
Summary of the method: (§2)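 Oocytes (ten per treatment, ≥4 independent frogs/days) were preloaded by injecting VF-6 in 25 nL ND96 at pH 5.0, 5.5, 6.0 or 7.0, or Na^+-free choline buffer, then uptake run 1.5 h, 27.5 °C, ND96 pH 5.5 by default. Internal concentrations assumed ~400 nL oocyte volume.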

[3] = target: PfCRT^3D7 (Plasmodium falciparum, UniProt Q8IBZ9); test: cell-based; type: cell-based; settings: for [3H]CQ transport, PfCRT3D7 (% PfCRT3D7 control): trans-stimulation, solute 45 mM injected (estimated intracellular)
Chain of PfCRT^3D7 (Q8IBZ9 59-398): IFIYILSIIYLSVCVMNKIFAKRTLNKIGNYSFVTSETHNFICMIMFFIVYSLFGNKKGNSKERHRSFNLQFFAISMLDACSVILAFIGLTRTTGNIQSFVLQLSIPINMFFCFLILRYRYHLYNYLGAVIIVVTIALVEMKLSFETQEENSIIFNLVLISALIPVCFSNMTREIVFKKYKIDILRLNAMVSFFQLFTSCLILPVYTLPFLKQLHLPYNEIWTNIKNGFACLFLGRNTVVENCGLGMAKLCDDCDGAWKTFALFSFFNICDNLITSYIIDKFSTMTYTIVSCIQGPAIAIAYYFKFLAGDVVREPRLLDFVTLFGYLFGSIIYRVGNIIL
Summary of the method: as §2

[4] = target: T1, PfNT1 (Plasmodium falciparum, UniProt Q8IDM6); test: cell-based; type: cell-based; settings: trans-stimulation, solute 45 mM injected (estimated intracellular)
T1 construct: expressed in transfected cells; host or cells: Xenopus laevis oocytes (stage V-VI), cRNA-injected
T1 sequence (Q8IDM6 whole entry): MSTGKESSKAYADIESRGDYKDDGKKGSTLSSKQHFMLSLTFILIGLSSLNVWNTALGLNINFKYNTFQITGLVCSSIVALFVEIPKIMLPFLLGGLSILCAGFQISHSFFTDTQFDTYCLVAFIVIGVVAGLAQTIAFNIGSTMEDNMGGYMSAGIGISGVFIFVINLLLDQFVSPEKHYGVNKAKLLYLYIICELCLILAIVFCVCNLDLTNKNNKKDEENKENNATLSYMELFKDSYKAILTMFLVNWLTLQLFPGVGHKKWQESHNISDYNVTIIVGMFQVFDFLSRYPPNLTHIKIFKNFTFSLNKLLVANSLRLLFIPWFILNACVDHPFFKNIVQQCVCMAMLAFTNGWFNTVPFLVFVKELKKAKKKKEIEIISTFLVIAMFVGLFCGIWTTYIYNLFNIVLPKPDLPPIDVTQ
Summary of the method: as §2

[5] = target: T2, PfCRT^Dd2 (Plasmodium falciparum, UniProt Q9N623, A220S/I356T/K76T/M74I/N326S/N75E/Q271E/R371I); test: cell-based; type: cell-based; settings: PfCRTDd2; mean ± SEM, n = 5; SEM
T2 sequence (Q9N623 whole entry A220S/I356T/K76T/M74I/N326S/N75E/Q271E/R371I): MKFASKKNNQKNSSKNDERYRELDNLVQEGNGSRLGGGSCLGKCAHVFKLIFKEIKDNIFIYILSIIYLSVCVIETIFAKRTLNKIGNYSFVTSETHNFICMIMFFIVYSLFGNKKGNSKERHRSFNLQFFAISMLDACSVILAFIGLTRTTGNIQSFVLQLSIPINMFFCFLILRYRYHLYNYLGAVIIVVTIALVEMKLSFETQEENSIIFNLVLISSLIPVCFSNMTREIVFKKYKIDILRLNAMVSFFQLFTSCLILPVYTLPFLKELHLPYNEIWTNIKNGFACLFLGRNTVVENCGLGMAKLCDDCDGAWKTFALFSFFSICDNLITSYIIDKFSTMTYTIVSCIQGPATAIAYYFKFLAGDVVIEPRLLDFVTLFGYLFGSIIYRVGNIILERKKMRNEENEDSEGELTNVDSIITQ
Summary of the method: as §2

[6] = target: T2, PfCRT^Dd2; test: [3H]CQ uptake into Xenopus oocytes, cis-inhibition by unlabelled solute; type: cell-based; settings: PfCRTEcu1110 and PfCRTDd2
Summary of the method: as §1

**Q.** With `CCN(CC)CCCC(C)Nc1ccnc2cc(Cl)ccc12` (stereo not shown) [CQ, chloroquine, reference compound] as the compound, how does the “[3H]CQ transport, non-expressing oocytes” value ([1]; 0 mM Ca2+, Experiment 1) read?
**A.** 3.74 % PfCRTDd2 control

**Q.** What about the “[3H]CQ transport, non-expressing oocytes” value ([1]; 0 mM Ca2+, Experiment 2) of the same compound?
**A.** 3.63 % PfCRTDd2 control

**Q.** What about the “[3H]CQ transport, non-expressing oocytes” value ([1]; 0 mM Ca2+, Experiment 3) of the same compound?
**A.** 4.25 % PfCRTDd2 control

**Q.** What about the “[3H]CQ transport, non-expressing oocytes” value ([1]; 0 mM Ca2+, Experiment 4) of the same compound?
**A.** 3.26 % PfCRTDd2 control

**Q.** What about the “[3H]CQ transport, non-expressing oocytes” value ([1]; 0 mM Cl-, Experiment 1) of the same compound?
**A.** 4.15 % PfCRTDd2 control

**Q.** What about the “[3H]CQ transport, non-expressing oocytes” value ([1]; 0 mM Cl-, Experiment 2) of the same compound?
**A.** 3.26 % PfCRTDd2 control

**Q.** What about the “[3H]CQ transport, non-expressing oocytes” value ([1]; 0 mM Cl-, Experiment 3) of the same compound?
**A.** 3.11 % PfCRTDd2 control

**Q.** And the “[3H]CQ transport, non-expressing oocytes” value ([1]; 0 mM Cl-, Experiment 4)?
**A.** 3.85 % PfCRTDd2 control

**Q.** And the “[3H]CQ transport, non-expressing oocytes” value ([1]; 0 mM Na+, Experiment 1)?
**A.** 3.84 % PfCRTDd2 control

**Q.** And the “[3H]CQ transport, non-expressing oocytes” value ([1]; 0 mM Na+, Experiment 2)?
**A.** 3.27 % PfCRTDd2 control

**Q.** And the “[3H]CQ transport, non-expressing oocytes” value ([1]; 0 mM Na+, Experiment 3)?
**A.** 3.36 % PfCRTDd2 control

**Q.** What about the “[3H]CQ transport, non-expressing oocytes” value ([1]; 0 mM Na+, Experiment 4) of the same compound?
**A.** 3.51 % PfCRTDd2 control

**Q.** What about the “[3H]CQ transport, non-expressing oocytes” value ([1]; 1 mM Ca2+, Experiment 1) of the same compound?
**A.** 3.79 % PfCRTDd2 control

**Q.** What about the “[3H]CQ transport, non-expressing oocytes” value ([1]; 1 mM Ca2+, Experiment 2) of the same compound?
**A.** 4.21 % PfCRTDd2 control

**Q.** And the “[3H]CQ transport, non-expressing oocytes” value ([1]; 1 mM Ca2+, Experiment 3)?
**A.** 3.27 % PfCRTDd2 control

**Q.** What about the “[3H]CQ transport, non-expressing oocytes” value ([1]; 1 mM Ca2+, Experiment 4) of the same compound?
**A.** 3.32 % PfCRTDd2 control

**Q.** What about the “[3H]CQ transport, non-expressing oocytes” value ([1]; 3 mM Ca2+, Experiment 1) of the same compound?
**A.** 3.39 % PfCRTDd2 control

**Q.** And the “[3H]CQ transport, non-expressing oocytes” value ([1]; 3 mM Ca2+, Experiment 2)?
**A.** 3.63 % PfCRTDd2 control

**Q.** What about the “[3H]CQ transport, non-expressing oocytes” value ([1]; 3 mM Ca2+, Experiment 3) of the same compound?
**A.** 3.89 % PfCRTDd2 control

**Q.** And the “[3H]CQ transport, non-expressing oocytes” value ([1]; 3 mM Ca2+, Experiment 4)?
**A.** 3.96 % PfCRTDd2 control

**Q.** What about the “[3H]CQ transport, non-expressing oocytes” value ([1]; 5 mM Ca2+, Experiment 1) of the same compound?
**A.** 3.68 % PfCRTDd2 control

**Q.** What about the “[3H]CQ transport, non-expressing oocytes” value ([1]; 5 mM Ca2+, Experiment 2) of the same compound?
**A.** 3.26 % PfCRTDd2 control

**Q.** And the “[3H]CQ transport, non-expressing oocytes” value ([1]; 5 mM Ca2+, Experiment 3)?
**A.** 3.94 % PfCRTDd2 control

**Q.** And the “[3H]CQ transport, non-expressing oocytes” value ([1]; 5 mM Ca2+, Experiment 4)?
**A.** 3.67 % PfCRTDd2 control

**Q.** What about the “[3H]CQ transport, non-expressing oocytes” value ([1]; Control, Experiment 1, Supp Fig. 2b) of the same compound?
**A.** 3.53 % PfCRTDd2 control

**Q.** What about the “[3H]CQ transport, non-expressing oocytes” value ([1]; Control, Experiment 1, Supp Fig. 2f) of the same compound?
**A.** 3.93 % PfCRTDd2 control

**Q.** And the “[3H]CQ transport, non-expressing oocytes” value ([1]; Control, Experiment 1, Supp Fig. 2d)?
**A.** 3.52 % PfCRTDd2 control

**Q.** What about the “[3H]CQ transport, non-expressing oocytes” value ([1]; Control, Experiment 2, Supp Fig. 2b) of the same compound?
**A.** 3.62 % PfCRTDd2 control

**Q.** What about the “[3H]CQ transport, non-expressing oocytes” value ([1]; Control, Experiment 2, Supp Fig. 2f) of the same compound?
**A.** 3.26 % PfCRTDd2 control

**Q.** And the “[3H]CQ transport, non-expressing oocytes” value ([1]; Control, Experiment 2, Supp Fig. 2d)?
**A.** 3.16 % PfCRTDd2 control

**Q.** And the “[3H]CQ transport, non-expressing oocytes” value ([1]; Control, Experiment 3, Supp Fig. 2b)?
**A.** 3.28 % PfCRTDd2 control

**Q.** What about the “[3H]CQ transport, non-expressing oocytes” value ([1]; Control, Experiment 3, Supp Fig. 2f) of the same compound?
**A.** 3.29 % PfCRTDd2 control

**Q.** What about the “[3H]CQ transport, non-expressing oocytes” value ([1]; Control, Experiment 3, Supp Fig. 2d) of the same compound?
**A.** 3.75 % PfCRTDd2 control

**Q.** And the “[3H]CQ transport, non-expressing oocytes” value ([1]; Control, Experiment 4, Supp Fig. 2b)?
**A.** 3.81 % PfCRTDd2 control

**Q.** What about the “[3H]CQ transport, non-expressing oocytes” value ([1]; Control, Experiment 4, Supp Fig. 2f) of the same compound?
**A.** 4.38 % PfCRTDd2 control

**Q.** What about the “[3H]CQ transport, non-expressing oocytes” value ([1]; Control, Experiment 4, Supp Fig. 2d) of the same compound?
**A.** 3.21 % PfCRTDd2 control

**Q.** Which results are given for `CC(C)(C)NC(=O)[C@@H]1C[C@@H]2CCCC[C@@H]2CN1C[C@@H](O)[C@H](Cc1ccccc1)NC(=O)[C@H](CC(N)=O)NC(=O)c1ccc2ccccc2n1` [Saquinavir, saquinavir, reference compound]?
**A.** App Vmax for the trans-stimulatory effect of the peptide mimic on [3H]CQ transport [2]: 1.6 ±0.2 pmol/oocyte/h; App Vmax for the trans-stimulatory effect of the peptide mimic on [3H]CQ transport ([3]; PfCRT3D7, mean ± SEM, n = 5, SEM): 2.2 ±0.5 pmol/oocyte/h; Trans-stimulation of [3H]CQ transport via PfCRT (in words) ([3]; PfCRT isoforms as stated in the sentence): trans-stimulated; [3H]CQ transport, PfCRT3D7 (% PfCRT3D7 control) ([3]; Experiment 1): 157.43 % PfCRT3D7 control; [3H]CQ transport, PfCRT3D7 (% PfCRT3D7 control) ([3]; Experiment 2): 162.15 % PfCRT3D7 control; [3H]CQ transport, PfCRT3D7 (% PfCRT3D7 control) ([3]; Experiment 3): 143.46 % PfCRT3D7 control; [3H]CQ transport, PfCRT3D7 (% PfCRT3D7 control) ([3]; Experiment 4): 158.34 % PfCRT3D7 control; [3H]CQ transport, PfNT1 (% PfCRTDd2 control) ([4]; Experiment 1): 2.62 % PfCRTDd2 control; [3H]CQ transport, PfNT1 (% PfCRTDd2 control) ([4]; Experiment 2): 2.47 % PfCRTDd2 control; [3H]CQ transport, PfNT1 (% PfCRTDd2 control) ([4]; Experiment 3): 2.54 % PfCRTDd2 control; [3H]CQ transport, PfNT1 (% PfCRTDd2 control) ([4]; Experiment 4): 2.32 % PfCRTDd2 control; App Vmax for the trans-stimulatory effect of the peptide mimic on [3H]CQ transport [5]: 0.8 ±0.05 pmol/oocyte/h; Cis-inhibition of [3H]CQ transport (in words) [6]: cis-inhibited
